The source of these data is US20150094225A1, “METHOD OF OBTAINING INFORMATION FOR IDENTIFYING TUMOR CELL UNDERGOING EPITHELIAL-MESENCHYMAL TRANSITION IN SAMPLE, METHOD OF IDENTIFYING TUMOR CELL UNDERGOING EPITHELIAL-MESENCHYMAL TRANSITION IN SAMPLE, METHOD OF DIAGNOSING SUBJECT HAVING TUMOR CELL UNDERGOING EPITHELIAL-MESENCHYMAL TRANSITION AND …” (Samsung Electronics Co., Ltd., priority 2013, published 2015).

SMILES strings stand for the structures. Where two headings read alike, the source gives them in different places.

Common to all, as to format: cell-based
Test [1] deals with prostate cancer cells (Du145). The experiment in a line: western blotting and RT-PCR of EMT-induced DU145 cells cultured in medium including TSA, SB or CoCl2. Background: Immunoblotting shows a protein as a band on a membrane.
Test [2] relates to breast cancer cells (MCF7). The experiment in a line: RT-PCR of EMT-induced MCF7 cells cultured in medium including TSA, SB or CoCl2. To be noted: for expression of EpCAM / expression of Twist / expression of snail: 0.5 μM TSA or 2.5 mM SB.
Test [3] has as its system breast cancer cells (MCF7). Kind of test: western blotting of EMT-induced MCF7 cells cultured in TSA- or CoCl2-containing medium.
The subject of test [4] is lung cancer cells (NCI-1650). The experiment in a line: RT-PCR of EMT-induced NCI-1650 cells cultured in TSA-containing medium. To be noted: NCI-1650, RT-PCR, 0.5 μM TSA, one day.
Test [5] has as its system lung cancer cells (NCI-1650). Kind of test: western blotting of EMT-induced NCI-1650 cells cultured in TSA-containing medium. The note with it: NCI-1650, western blotting, 0.5 μM TSA, one day.
Setting [6] is: DU145, western blotting/RT-PCR, 0.5 μM TSA, 2.5 mM SB or 400 μM CoCl2, one day.
[7] abbreviates: MCF7, RT-PCR, 0.5 μM TSA or 400 μM CoCl2, one day.
Setting [8] is: MCF7, RT-PCR, 0.5 μM TSA, 2.5 mM SB or 400 μM CoCl2, one day.
The mark [9] stands for this setting: MCF7, western blotting (FIG. 15: western/RT-PCR not told apart), 0.5 μM TSA or 400 μM CoCl2, one day.

In the case of `CC(/C=C/C(=O)NO)=C\[C@@H](C)C(=O)c1ccc(N(C)C)cc1` [TSA, Trichostatin A], in test [1] (setting [6]), the “expression of ACOT1” value was “decreased”, the “expression of EpCAM” value was “increased”, the “expression of PTPLB” value is “decreased” and the “expression of SCD1” value was “increased”. Besides, in test [1] (setting [6]), the expression of snail result was “increased”. Moreover, in test [2] (setting [7]), the “expression of ACACA” value is recorded as “increased”, the “expression of PPARγ” value is listed as “decreased” and the “expression of SCD1” value is recorded as “increased”. In test [2] (MCF7, RT-PCR, one day), the “expression of EpCAM” value was “decreased”, the “expression of Twist” value is on record as “increased” and the “expression of snail” value is reported as “increased”. For the same compound, in test [2] (setting [8]), the “expression of ACOT1” value was “decreased” and the “expression of PTPLB” value is recorded as “decreased”. In test [2] (MCF7, RT-PCR, 0.5 μM TSA, one day), the “expression of N-cadherin” value is “increased”. Moreover, in test [3] (setting [9]), the “expression of N-cadherein” value is “gradually increased” and the expression of snail result is “gradually increased”. Further, the “expression of E-cadherin” value in test [3] (MCF7, western blotting, 0.5 μM TSA, cultured one day) was “decreased”. Moreover, in test [4], the “expression of ACOT1” value is given as “decreased”, the “expression of PTPLB” value is reported as “decreased” and the “expression of SCD1” value was “increased”. Further, in test [5], the “expression of N-cadherein” value is “gradually increased”, the “expression of Vimentin” value is on record as “gradually increased” and the expression of snail result is recorded as “gradually increased”.
`CCCC(=O)[O-].[Na+]` [SB, sodium butyrate]: in test [1] (setting [6]), the “expression of ACOT1” value is reported as “decreased”, the “expression of EpCAM” value was “increased”, the “expression of PTPLB” value is “decreased” and the “expression of SCD1” value is reported as “increased”. For the same compound, in test [1] (setting [6]), the expression of snail result is given as “increased”. In test [2] (MCF7, RT-PCR, one day), the “expression of EpCAM” value is “decreased”, the “expression of Twist” value is “increased” and the “expression of snail” value was “increased”. Also, in test [2] (setting [8]), the “expression of ACOT1” value is on record as “decreased” and the “expression of PTPLB” value was “decreased”.
`[Cl-].[Cl-].[Co+2]` [CoCl2]: in test [1], the “expression of ACOT1” value was “decreased”, the “expression of EpCAM” value was “increased”, the “expression of PTPLB” value is “decreased” and the “expression of SCD1” value is on record as “increased”. Moreover, the expression of snail result in test [1] is “increased”. In test [2], the “expression of ACACA” value is “decreased”, the “expression of ACOT1” value was “decreased”, the “expression of FASN” value is reported as “decreased” and the “expression of PPARγ” value was “decreased”. In addition, in test [2], the “expression of PTPLB” value is on record as “decreased” and the “expression of SCD1” value was “increased”. Besides, in test [3], the “expression of HIF-1α” value is on record as “gradually increased”, the “expression of N-cadherein” value is listed as “gradually increased” and the expression of snail result is “gradually increased”.
